Source: patent US11634479B2, “Immunoassay for collagen type VI” (Nordic Bioscience A/S, priority 2015, dated 2023)

Key:
[1] = BALLETS phase III clinical study: adverse event profile in subgroups of baseline endotrophin; assay type: in vivo, subjects with type 2 diabetes on stable insulin therapy
Source text: Testing Strategies) study was a phase III, randomized, double-blind, parallel-group, placebo and active comparator-controlled clinical study to determine the efficacy and safety of six months' treatment of balaglitazone or pioglitazone in subjects with type 2 diabetes on stable insulin therapy. The baseline demographics, CONSORT diagram as well as efficacy and safety data have previously been published (Henriksen, 2011). In the current study we used the per protocol population of the BALLETS study, which consisted of 299 subjects spread evenly over four groups (placebo, two doses of balaglitazone, and one dose of piogliatazone) as previously described (Henriksen, 2011), all with baseline and up to six follow-up parameters related to blood sugar control and Pro-C6 determinations under therapy.
The analysis included subjects from the per protocol population having a baseline measurement of serum Pro-C6. Subjects were grouped into one of three tertiles based on their baseline Pro-C6 value. Tertile 1 included subjects with baseline serum Pro-C6 of 6.2 ng/mL or below; tertile 2 had baseline serum Pro-C6 of 6.3 ng/mL to 7.7 ng/mL, and tertile 3 had baseline serum Pro-C6 of 7.8 ng/mL or above. Baseline characteristics between the three subgroups were compared by analysis of variance (ANOVA), and comparison of the proportion of genders in each tertile was compared by Fisher's exact test.
Lower leg edema, when measured as volume increase due to water displacement, was correlated with baseline serum endotrophin tertiles. Glitazone therapy led to increased lower leg volume in the lower and middle tertile, while there were no differences between treatment and placebo groups in the upper tertile (FIG. 12A-12C). There were no significant differences in the occurrence of AEs or SAEs in the three different treatment groups when stratified according to endotrophin levels. The difference between the SAEs in Table 10 and the lower leg oedema reported in FIGS. 12A-12C is a function of the lower leg volume being a quantitative measure and the reporting of oedemas being a patient reported output (FIGS. 10A-10C).

[2] = system: around 10 kD bands in human serum and amniotic fluid; assay: Western blot of human serum and amniotic fluid; assay type: binding; details: FIG. 2B
Chain of around 10 kD bands in human serum and amniotic fluid (P12111 3112-3177 limits assumed): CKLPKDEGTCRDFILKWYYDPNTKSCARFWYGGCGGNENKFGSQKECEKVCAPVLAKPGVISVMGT
Procedure: Native reactivity of the chosen antibody was assessed using human serum pool and human amniotic fluid pool.

[3] = Tertile 1 baseline endotrophin, Balaglitazone 10 mg, n = 27
[4] = Tertile 1 baseline endotrophin, Balaglitazone 20 mg, n = 22
[5] = Tertile 2 baseline endotrophin, Balaglitazone 10 mg, n = 21
[6] = Tertile 2 baseline endotrophin, Balaglitazone 20 mg, n = 21
[7] = Tertile 3 baseline endotrophin, Balaglitazone 10 mg, n = 25
[8] = Tertile 3 baseline endotrophin, Balaglitazone 20 mg, n = 25
[9] = Tertile 1 baseline endotrophin, Pioglitazone 45 mg, n = 24
[10] = Tertile 2 baseline endotrophin, Pioglitazone 45 mg, n = 29
[11] = Tertile 3 baseline endotrophin, Pioglitazone 45 mg, n = 31

## Cn1c(COc2ccc(CC3SC(=O)NC3=O)cc2)nc2ccccc2c1=O (stereo not drawn) [Balaglitazone, balaglitazone]
[1]; [3]
  All AEs, E: 38
  All AEs, N (%): 20 (74%) N (%)
  Serious AEs, E: 1
  Serious AEs, N (%): 1 (4%) N (%)
  Severe AEs: Cardiac ischaemia, E: 0
  Severe AEs: Cardiac ischaemia, N (%): 0 (0%) N (%)
  Severe AEs: Heart failure, E: 0
  Severe AEs: Heart failure, N (%): 0 (0%) N (%)
  Severe AEs: Peripheral oedema, E: 2
  Severe AEs: Peripheral oedema, N (%): 2 (7%) N (%)
  Total severe AEs, E: 2
  Total severe AEs, N (%): 2 (7%) N (%)
[1]; [4]
  All AEs, E: 33
  All AEs, N (%): 17 (77%) N (%)
  Serious AEs, E: 1
  Serious AEs, N (%): 1 (5%) N (%)
  Severe AEs: Cardiac ischaemia, E: 2
  Severe AEs: Cardiac ischaemia, N (%): 2 (9%) N (%)
  Severe AEs: Heart failure, E: 0
  Severe AEs: Heart failure, N (%): 0 (0%) N (%)
  Severe AEs: Peripheral oedema, E: 2
  Severe AEs: Peripheral oedema, N (%): 2 (9%) N (%)
  Total severe AEs, E: 4
  Total severe AEs, N (%): 4 (18%) N (%)
[1]; [5]
  All AEs, E: 35
  All AEs, N (%): 17 (81%) N (%)
  Serious AEs, E: 1
  Serious AEs, N (%): 1 (5%) N (%)
  Severe AEs: Cardiac ischaemia, E: 1
  Severe AEs: Cardiac ischaemia, N (%): 1 (5%) N (%)
  Severe AEs: Heart failure, E: 0
  Severe AEs: Heart failure, N (%): 0 (0%) N (%)
  Severe AEs: Peripheral oedema, E: 3
  Severe AEs: Peripheral oedema, N (%): 3 (14%) N (%)
  Total severe AEs, E: 4
  Total severe AEs, N (%): 4 (19%) N (%)
[1]; [6]
  All AEs, E: 36
  All AEs, N (%): 15 (71%) N (%)
  Serious AEs, E: 0
  Serious AEs, N (%): 0 (0%) N (%)
  Severe AEs: Cardiac ischaemia, E: 0
  Severe AEs: Cardiac ischaemia, N (%): 0 (0%) N (%)
  Severe AEs: Heart failure, E: 0
  Severe AEs: Heart failure, N (%): 0 (0%) N (%)
  Severe AEs: Peripheral oedema, E: 2
  Severe AEs: Peripheral oedema, N (%): 2 (10%) N (%)
  Total severe AEs, E: 2
  Total severe AEs, N (%): 2 (10%) N (%)
[1]; [7]
  All AEs, E: 55
  All AEs, N (%): 20 (60%) N (%)
  Serious AEs, E: 1
  Serious AEs, N (%): 1 (4%) N (%)
  Severe AEs: Cardiac ischaemia, E: 0
  Severe AEs: Cardiac ischaemia, N (%): 0 (0%) N (%)
  Severe AEs: Heart failure, E: 0
  Severe AEs: Heart failure, N (%): 0 (0%) N (%)
  Severe AEs: Peripheral oedema, E: 1
  Severe AEs: Peripheral oedema, N (%): 1 (8%) N (%)
  Total severe AEs, E: 1
  Total severe AEs, N (%): 1 (8%) N (%)
[1]; [8]
  All AEs, E: 43
  All AEs, N (%): 20 (60%) N (%)
  Serious AEs, E: 6
  Serious AEs, N (%): 6 (24%) N (%)
  Severe AEs: Cardiac ischaemia, E: 1
  Severe AEs: Cardiac ischaemia, N (%): 1 (4%) N (%)
  Severe AEs: Heart failure, E: 0
  Severe AEs: Heart failure, N (%): 0 (0%) N (%)
  Severe AEs: Peripheral oedema, E: 1
  Severe AEs: Peripheral oedema, N (%): 1 (4%) N (%)
  Total severe AEs, E: 2
  Total severe AEs, N (%): 2 (8%) N (%)

## CCc1ccc(CCOc2ccc(CC3SC(=O)NC3=O)cc2)nc1 (stereo not drawn) [Pioglitazone, pioglitazone]
[1]; [9]
  All AEs, E: 45
  All AEs, N (%): 19 (79%) N (%)
  Serious AEs, E: 1
  Serious AEs, N (%): 1 (4%) N (%)
  Severe AEs: Cardiac ischaemia, E: 0
  Severe AEs: Cardiac ischaemia, N (%): 0 (0%) N (%)
  Severe AEs: Heart failure, E: 0
  Severe AEs: Heart failure, N (%): 0 (0%) N (%)
  Severe AEs: Peripheral oedema, E: 5
  Severe AEs: Peripheral oedema, N (%): 5 (21%) N (%)
  Total severe AEs, E: 5
  Total severe AEs, N (%): 5 (21%) N (%)
[1]; [10]
  All AEs, N (%): 17 (59%)^ N (%)
  Serious AEs, E: 3
  Serious AEs, N (%): 2 (6%) N (%)
  Severe AEs: Cardiac ischaemia, E: 1
  Severe AEs: Cardiac ischaemia, N (%): 1 (3%) N (%)
  Severe AEs: Heart failure, E: 0
  Severe AEs: Heart failure, N (%): 0 (0%) N (%)
  Severe AEs: Peripheral oedema, E: 5
  Severe AEs: Peripheral oedema, N (%): 5 (17%) N (%)
  Total severe AEs, E: 6
  Total severe AEs, N (%): 5 (17%) N (%)
[1]; [11]
  All AEs, N (%): 25 (81%)^ N (%)
  Serious AEs, E: 6
  Serious AEs, N (%): 4 (13%) N (%)
  Severe AEs: Cardiac ischaemia, E: 4
  Severe AEs: Cardiac ischaemia, N (%): 3 (10%) N (%)
  Severe AEs: Heart failure, E: 1
  Severe AEs: Heart failure, N (%): 1 (3%) N (%)
  Severe AEs: Peripheral oedema, E: 2
  Severe AEs: Peripheral oedema, N (%): 2 (6%) N (%)
  Total severe AEs, E: 7
  Total severe AEs, N (%): 6 (19%) N (%)

B1: 10A3: mouse IgG1/kappa monoclonal antibody against the last 10 amino acids of C-terminal COL6A3 (…); heavy chain SEQ ID NO:5, light chain SEQ ID NO:9 (antibody)
heavy: EVQLQQSGPVMVKPGTSVKTSCKASGYTFTDFNMNWVKQSHGKSLEWIGAINPHNGATSYNQKFSGKATLTVDKSSSTAYMELNSLTSDDSAVYYCARWGNGKNSWGQGTTLTVSSAKTTPPSVYPLAPGSAAQTNSMVTLGCLVKGYFPEPVTVTWNSGSLSSGVHTFPAVLQSDLYTLSSSVTVPSSTWPSETVTCNVAHPASSTKVDKKIVPRDCGCKPCICTVPEVSSVFIFPPKPKDVLTITLTPKVTCVVVDISKDDPEVQFSWFVDDVEVHTAQTQPREEQFNSTFRSVSELPIMHQDWLNGKEFKCRVNSAAFPAPIEKTISKTKGRPKAPQVYTIPPPKEQMAKDKVSLTCMITDFFPEDITVEWQWNGQPAENYKNTQPIMDTDGSYFVYSKLNVQKSNWEAGNTFTCSVLHEGLHNHHTEKSLSHSPGK
light: DVVMTQTPLSLPVNLGDQASISCRSSQRIVHSNGITFLEWYLQKPGQSPKLLIYRVSNRFSGVPDRFSGSGSGTDFTLKISRVEAEDLGLYYCFQGSHVPLTFGAGTRLELKRADAAPTVSIFPPSSEQLTSGGASVVCFLNNFYPKDINVKWKIDGSERQNGVLNSWTDQDSKDSTYSMSSTLTLTKDEYERHNSYTCEATHKTSTSPIVKSFNRNEC
modifications: Heavy chain sequence of mouse IgG1 isotype of monoclonal antibody 10A3; Light chain sequence of mouse Kappa isotype of monoclonal antibody 10A3
[2]
  western blot signal in the presence of the standard peptide: completely blocked
[2]; human serum and amniotic fluid
  bands recognized in western blot: around 10 kD
